# According to ChEMBL document CHEMBL3734697, “Fragment-Based Drug Design of Novel Pyranopyridones as Cell Active and Orally Bioavailable Tankyrase Inhibitors” (ACS Med Chem Lett, 2015):
# Tests used:
# [1] = Kinetic solubility of compound by LYSA; assay type: physicochemical; details: read-out: Kinetic_solubility
# [2] = Clearance in Wistar/Han rat at 0.5 mg/kg, iv administered as single bolus dose; assay type: ADME, organism-based; details: in vivo
# [3] = AUC (0 to last) in C57BL/6J mouse at 1 mg/kg, iv by LC/MS/MS analysis; assay type: ADME, organism-based; parameters: dose 1 mg/kg, route intravenous, time 0 - last; details: in vivo
# [4] = Clearance in C57BL/6J mouse at 1 mg/kg, iv by LC/MS/MS analysis; assay type: ADME, organism-based; details: in vivo
# [5] = Volume of distribution at steady state in C57BL/6J mouse at 1 mg/kg, iv by LC/MS/MS analysis; assay type: ADME, organism-based; details: in vivo, read-out: Vdss
# [6] = Cmax in C57BL/6J mouse at 5 mg/kg, po by LC/MS/MS analysis; assay type: ADME, organism-based; parameters: dose 5 mg/kg, route oral; details: in vivo
# [7] = Cmax in C57BL/6J mouse at 50 mg/kg, po by LC/MS/MS analysis; assay type: ADME, organism-based; parameters: dose 50 mg/kg, route oral; details: in vivo
# [8] = AUC (0 to last) in C57BL/6J mouse at 5 mg/kg, po by LC/MS/MS analysis; assay type: ADME, organism-based; parameters: dose 5 mg/kg, time 0 - last, route oral; details: in vivo
# [9] = AUC (0 to last) in C57BL/6J mouse at 50 mg/kg, po by LC/MS/MS analysis; assay type: ADME, organism-based; parameters: dose 50 mg/kg, time 0 - last, route oral; details: in vivo
# [10] = Tmax in C57BL/6J mouse at 5 mg/kg, po by LC/MS/MS analysis; assay type: ADME, organism-based; details: in vivo
# [11] = Oral bioavailability in C57BL/6J mouse at 5 mg/kg by LC/MS/MS analysis; assay type: ADME, organism-based; details: in vivo
# [12] = Oral bioavailability in C57BL/6J mouse at 50 mg/kg by LC/MS/MS analysis; assay type: ADME, organism-based; details: in vivo
# [13] = Clearance in Wistar/Han rat at 1 mg/kg, iv administered as single bolus dose; assay type: ADME, organism-based; details: in vivo
# [14] = Solubility of compound in fasted-state simulated intestinal fluid; assay type: ADME
# [15] = Solubility of compound in fed-state simulated intestinal fluid; assay type: ADME
# [16] = Tmax in C57BL/6J mouse at 50 mg/kg, po by LC/MS/MS analysis; assay type: ADME, organism-based; details: in vivo
compound,measurement,setting,value
CC(C)(CO)C1Cc2[nH]c(=O)c3ccccc3c2CO1 (racemic),solubility kinetic,[1],66 µg/mL
Cc1cccc2c(=O)[nH]c3c(c12)COC(C(C)C)C3 (racemic),solubility kinetic,[1],< 1 µg/mL
same,clearance,[2],20 mL/min/kg
CC(C)(C)C1Cc2[nH]c(=O)c3ccccc3c2CO1 (racemic),solubility kinetic,[1],< 1 µg/mL
same,clearance,[2],2 mL/min/kg
O=C(C1COC1)N1CCC(C2Cc3[nH]c(=O)c4ccccc4c3CO2)CC1 (racemic),solubility kinetic,[1],13 µg/mL
CC(C)C1Cc2[nH]c(=O)c3cccnc3c2CO1 (racemic),solubility kinetic,[1],13 µg/mL
same,clearance,[2],10 mL/min/kg
Cc1cccc2c(=O)[nH]c3c(c12)COC(C(C)(C)CO)C3 (racemic),AUC(0-t),[3],600 ng·h/mL
same,clearance,[4],28 mL/min/kg
same,Vd,[5],1.5 L/kg
same,Cmax,[6],1600 ng/mL
same,Cmax,[7],14000 ng/mL
same,solubility kinetic,[1],4 µg/mL
same,AUC(0-t),[8],1400 ng·h/mL
same,AUC(0-t),[9],27000 ng·h/mL
same,Tmax,[10],15 min
same,bioavailability,[11],49%
same,bioavailability,[12],92%
same,clearance,[13],25 mL/min/kg
same,solubility,[14],50 µg/mL
same,solubility,[15],143 µg/mL
same,Tmax,[16],15 min
CS(=O)(=O)N1CCC(C2Cc3[nH]c(=O)c4ccccc4c3CO2)C1 (racemic),solubility kinetic,[1],28 µg/mL
same,clearance,[2],47 mL/min/kg
CC(C)C1Cc2[nH]c(=O)c3ccccc3c2CO1 (racemic),solubility kinetic,[1],5 µg/mL
same,clearance,[2],37 mL/min/kg
